Test results reported in US9622984B1, “Synthesis of naringenin nanoparticles” (priority 2016, dated 2017).

Assays:
HSP70 = HSP70 levels in gills (ELISA kit) after 21 days exposure; type: in vivo, Oreochromis niloticus; details: fish exposed to Cd only (5 ppm), control 152.8800±11.81554 pg/g
Procedure: (§1) Experimental design was as follows. Adult Nile tilapia, Oreochromis niloticus (n=120 fish), with an average length of 20±4 cm and weight of 150 g-200 g were procured from the local fish farm near Riyadh City. They were checked thoroughly for injury and disease conditions. After washing with 0.01% KMnO4 solution for 15 min, they were divided into five groups each comprising 20 fish and kept in glass tanks (100 L capacity) with non-chlorinated tap water. Prior to the start of the experiment, the fish were acclimated to the food and laboratory conditions with 12 hr dark and 12 hr light cycles, pH range of 6 to 8 and temperature ranging from 20° C. to 24° C. for 15 days. The exposure period was 21 days. Through the entire experimental period the fish were fed commercial pelleted diet at 2% body weight.
(§2) The experimental groups were in replicates as follows. Group I was the negative control which contained dechlorinated tap water with no added CdCl2.H2O and without any antioxidant treatment (designated “Control” in FIGS. 9-10). […]
Biochemical analysis was performed as follows. A quantitation of MDA levels in the liver (lipid peroxides) was done by a high performance liquid chromatographic (HPLC) method. […] The levels of hepatic metalothionein levels (MT-2) and HSP70 in […] were also assessed using commercial ELISA kits.
Heat shock protein (HSP70) in gills was determined as follows. […]

[1] = test system: Nile tilapia (Oreochromis niloticus) exposed to 5 ppm CdCl2.H2O; assay: Cadmium concentration in tissues by atomic absorption spectrophotometer after 21 days exposure; type: in vivo; details: fish exposed to Cd only (5 ppm), control 205.4804±62.9 ng/g
Procedure: as §1, §2
Cadmium concentration in tissues was determined as follows. […] The concentration of Cd in digested tissue samples were analyzed in an atomic absorption spectrophotometer.
Cadmium accumulation in liver was assessed as follows. […]

O.[Cd+2].[Cl-].[Cl-] [Cd, CdCl2.H2O]
HSP70 concentration in gills (HSP70): 251.6600 ± 19.36 pg/g | Cd concentration in the liver [1]: 1113.3320 ± 48.39 ng/g
